Laboratory results: patent US20230146422A1, “ANIMAL MODEL FOR STUDYING CANCER IMMUNOTHERAPY” (ONCOFACTORY, priority 2020, published 2023)

Key:
[1] = system: human melanoma A375 cell line; assay: Tumor volume in avian embryo co-grafted with A375 melanoma cells and human PBMCs (FIG. 12A); type: in vivo; conditions: A375 + human PBMCs co-graft, Keytruda injected 24 hours post-grafting, vs excipient, two to three days post-grafting
Procedure: To determine whether tumors composed of mixed human tumoral cells and immune cells are sensitive to anti-PD1 antibody treatment, the human melanoma A375 cell line was selected for the experiments. Indeed, this cell line was recently reported to express significant levels of PDL1 and to respond to anti-PD1 immunotherapy (Kuryk L, Møller A W, Jaderberg M, 2019).
A375 melanoma cells were cultured and co-grafted with human PBMC cells as previously described.
Two to three days post-grafting, embryos were collected and processed for imaging with a confocal light sheet microscope. The volume of the tumors was quantified using IMARIS software.

MDAMB 231 tumoral cells = assay: Tumor volume in avian embryo co-grafted with MDAMB 231 cells and human PBMCs (FIG. 12B); type: in vivo; conditions: MDAMB 231 + human PBMCs co-graft, vs NaCl, raw and BSA-normalized
Procedure: (§1) The same experiment of example 9 was performed with other cancer cells: • MDAMB 231, well-known to be responsive to immunotherapy, and • a tumor sample issued from a patient affected by a metastatic melanoma.

[2] = system: T lymphocytes of PBMCs co-grafted with MDAMD231 tumoral cells; assay: Activation and exhaustion markers on immune cells co-grafted with MDAMD231 cells in avian embryo, Keytruda treatment (FIG. 11D); type: in vivo, human; conditions: PBMCs co-grafted with MDAMD231, Keytruda 5 mg/ml, 24 hours, vs NaCl
Description: Expression of activation and exhaustion markers on co-grafted immune cells was quantified.

[3] = system: CD4 and CD8 T cells of grafted human PBMCs; assay: Activation and exhaustion markers on T cells of PBMCs grafted or co-grafted with MDAMB436 cells in avian embryo, with or without Keytruda (FIG. 11C); type: in vivo; conditions: FACS 48 hours post-grafting
Procedure: (11C) PBMC were co-grafted with tumoral cells: Pmela (a PDL1 negative cell line) or MDAMB436 (a PDL1 weak positive cell line).
Markers of activation (CD69, HLADR on the left) and exhaustion (CTLA4, PD1, on the right) were determined in PBMCs after co-grafting with human tumoral cells (Pmela or MDAM) in an avian embryo. Values are expressed in frequency over CD4+ and CD8+ populations in ratios of total identified lymphocytes (CD3+CD4+ and CD3+CD8+). Standard Deviations show data from a pool of PBMC from different healthy donors. Left Graph: CD4+, right graph: CD8+.
Then, MDAMB436 cells or Pmela cells were co-grafted with human PBMC cells.
At two days (48 hours) post-grafting, PBMCs were isolated from grafted embryos and analyzed by FACS.
Finally, grafted PBMCs were isolated by Percoll density separation and stained cells for markers of activation (CD69/HLADR) and exhaustion (CTLA4/PD1).
Standard Deviations show data from a pool of PBMC from different healthy donors. Values are expressed in ratios of the specific marker over CD3+CD4+ and CD3+CD8+ populations.

[4] = system: tumor sample from a patient affected by a metastatic melanoma; assay: Metastasis number and volume in avian embryo co-grafted with human PBMCs and patient metastatic melanoma sample (FIG. 12C); type: in vivo; conditions: patient metastatic melanoma sample + human PBMCs co-graft, vs NaCl
Procedure: Metastasis number (on the left) and volume of metastatic tumors (in the middle) have been assessed. On the right, pictures show the extension of the tumor after NaCl treatment (on top) and after Keytruda treatment (on the bottom).
as §1
Also, the number of metastases formed by patient tumoral cells in the avian embryonic tissues has been assessed by the following of fluorescently-labelled tumor cells, and subsequent quantification of the fluorescent signal in the embryo.

Pemzolibrumab [Keytruda]
volume of the tumor [1]: decreases significantly
tumor volume (MDAMB 231 tumoral cells): significant reduction
expression of exhaustion marker PD1 [2]: decreased
expression of exhaustion marker TIM-3 [2]: decreased
levels of CTLA4 on the CD8 compartment ([3]; embryo treated 24 hours with Keytruda (PD1 blocking)): very high levels
PD1 expression/accessibility on CD8 T cells ([3]; embryo treated 24 hours with Keytruda): minimization
metastasis number (ability of tumor cells to metastasis) [4]: significantly decreased
metastatic-volume [4]: significant reduction
